Consider three compounds from US8591865B2, “Renal function analysis method and apparatus” (Pharmacophotonics, Inc., priority 2008, dated 2013).

The nature of data set [1]: Intravital 2-photon microscopy of plasma clearance (fluorescence intensity / intensity ratio in kidney blood vessels) after bolus infusion. The conditions noted are these: kidney of normal male rat, bolus IV infusion of dye mixture, 12-200 seconds.
Excerpt: These images were taken as function of time after a bolus intravenous infusion of a dye mixture containing a FITC-inulin (5.5 kD) and 500 kD dextran labeled with a sulforhodamine 101, i.e. Texas Red®. […] A red blood cell (RBC) appears as a dark object as it excludes dye.
The intensity ratio from the blood vessels in FIG. 3 changes over time with a change of relative concentrations of the two dyes.
Each data point in FIG. 5 was the average ratio value of the same region from a blood vessel extracted from an image time-series (such as the images shown in FIG. 3). The data points were plotted every 0.5 seconds up to 200 seconds.
Another data set has as its system dogs. The experiment in a line: Gentamycin-induced acute kidney injury in dogs: serum creatinine, BUN, USG, UPC. In kind it is in vivo, dog. The conditions noted are these: individual dogs; for Creatinine: gentamycin 10 mg/Kg IV q8 hours. The text has this: Five spayed female young adult hound-type mogrel dogs were confirmed to be in good health based on physical examination, complete blood count, blood chemistry analysis, urinalysis, urine protein-to-creatine ratio (UPC) and aerobic urine culture.

Data set [2] is described as follows: GFR by iohexol plasma clearance in gentamycin-induced AKI dogs. It is filed as in vivo, dog. The method, then: EDTA-anticoagulated blood was collected at 0, 5, 10, 20, 30, 60, 180, 240 and 300 minutes post-injection, centrifuged within 3 hours, and stored at -20° C.
The nature of data set [3]: GFR in swine by iohexol plasma disappearance. In kind it is in vivo, Osawbaw swine. The conditions noted are these: same swine.
Data set [4] in a line: GFR in dog by iohexol analysis. The conditions noted are these: 33.0 kg dog.
Excerpt: The higher noise in the data was caused by the movement during the data collection as the dog was not anesthetized.

“And” between values parts separate entries of the source, which are not always exact repeats. Equal entries are not always repeated. “Also recorded” adds a separate entry of the source.

For the compound “fluorescein isothiocyanate-inulin [FITC-inulin]”, the “glomerular filtration / plasma clearance seen as capillary fluorescence intensity over time” value in data set [1] is reported as “rapidly filtered into the proximal tubular lumen; also recorded: immediate plasma clearance”.

Take gentamycin: the BUN was 20 mg/dl (2×) and 14 mg/dl and 16 mg/dl and 9 mg/dl in the data set with dogs (Day 0 (baseline)); 16 mg/dl and 12 mg/dl (2×) and 15 mg/dl and 14 mg/dl with dogs (Day 3); 22 mg/dL and 15 mg/dL and 16 mg/dL and 10 mg/dL and 14 mg/dL with dogs (Day 6); 16 mg/dl (2×) and 97 mg/dl and 18 mg/dl and 14 mg/dl in the data set with dogs (Day 9). The “UPC (urine protein-to-creatine ratio)” value is 0.1 (4×) and 0.2 in the data set with dogs (Day 0 (baseline)); 0.5 and 1.0 and 0.2 and 0.3 (2×) in the data set with dogs (Day 3); 0.5 (2×) and 0.0 (2×) and 0.6 in the data set on dogs (Day 6); 2.1 and 2.8 and 3.1 and 1.7 and 1.6 in the data set with dogs (Day 9). For the same compound, the “USG (urine specific gravity)” value in the data set with dogs (Day 0 (baseline)) is 1.014 and 1.030 and 1.048 and 1.044 and 1.052; with dogs (Day 3), 1.008 and 1.014 (2×) and 1.000 and 1.010; in the data set on dogs (Day 6), 1.009 and 1.003 and 1.007 and 1.005 and 1.010; in the data set on dogs (Day 9), 1.006 (2×) and 1.011 and 1.004 and 1.005. In addition, the Creatinine in the data set with dogs (Day 0 (first day of injection, baseline)) was 0.8 mg/dl and 1.1 mg/dl and 0.9 mg/dl (2×) and 0.7 mg/dl; in the data set with dogs (Day 3), 0.9 mg/dl (2×) and 1.0 mg/dl (2×) and 0.8 mg/dl; in the data set on dogs (Day 6), 1.2 mg/dl and 1.5 mg/dl and 1.4 mg/dl and 1.0 mg/dl (2×); in the data set on dogs (Day 9) it was 1.5 mg/dL and 5.3 mg/dL and 1.9 mg/dL and 1.6 mg/dL and 1.1 mg/dL.

With `CC(=O)N(CC(O)CO)c1c(I)c(C(=O)NCC(O)CO)c(I)c(C(=O)NCC(O)CO)c1I` (stereo not drawn) [iohexol], the “GFR: Iohexol Plasma Clearance” value was 2.77 mL/min/kg and 4.00 mL/min/kg and 3.71 mL/min/kg and 3.82 mL/min/kg and 4.40 mL/min/kg in data set [2] (Day 0, 150 mg/kg iohexol IV, individual dogs (repeat results for two dogs), 150 mg/kg); 2.00 mL/min/kg and 3.45 mL/min/kg and 2.05 mL/min/kg and 4.17 mL/min/kg and 3.06 mL/min/kg in data set [2] (Day 3 of gentamycin, individual dogs); 2.78 mL/min/kg and 2.05 mL/min/kg and 2.46 mL/min/kg and 1.44 mL/min/kg and 3.36 mL/min/kg in data set [2] (Day 6 of gentamycin, individual dogs); 1.87 mL/min/kg and 0.10 mL/min/kg and 1.49 mL/min/kg and 2.47 mL/min/kg in data set [2] (Day 9 of gentamycin, individual dogs). This compound also gave a clearance in data set [2] (hound-type mongrel, dog, plasma, iv, 150 mg/kg, GFR: Iohexol Plasma Clearance, Day 0, 150 mg/kg iohexol IV, individual dogs (repeat results for two dogs)) of 3.28 mL/min/kg. For the same compound, the “GFR obtained using iohexol samples drawn for six hours” value in data set [3] was determined as 2.02 mL/min/kg. For the same compound, the “GFR obtained from iohexol analysis” value in data set [4] was 4.50 mL/min/kg.

As usually defined, the clearance is the volume of plasma or blood freed of the substance per unit of time. Read a low clearance as a low capacity for elimination.
